# Laboratory results reported in PubChem BioAssay (NCI).
#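 Step 1: Grow cells in 96-well plates. Step 2: Expose to compound for 48 hours at 5 concentrations. Step 3: Interpolate endpoints linearly; if unreached, use highest concentration. TGI denotes the concentration required for complete inhibition of growth.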
# Columns and labels:
# Assay in all cases: NCI tumour cell line growth inhibition, 48 h
# UACC-62 melanoma = test system: UACC-62 melanoma
# HT29 colon = test system: HT29 colon
# RXF 393 renal = test system: RXF 393 renal
# OVCAR-3 ovarian = test system: OVCAR-3 ovarian
# EKVX NSCLC = test system: EKVX NSCLC
# T-47D breast = test system: T-47D breast
# DMS 273 small cell lung = test system: DMS 273 small cell lung
# RXF-631 renal = test system: RXF-631 renal
# K-562 leukemia = test system: K-562 leukemia
# MALME-3M melanoma = test system: MALME-3M melanoma
# OVCAR-4 ovarian = test system: OVCAR-4 ovarian
# OVCAR-8 ovarian = test system: OVCAR-8 ovarian
# SW-620 colon = test system: SW-620 colon
# IGROV1 ovarian = test system: IGROV1 ovarian
# A498 renal = test system: A498 renal
# OVCAR-5 ovarian = test system: OVCAR-5 ovarian
# NCI-H23 lung = test system: NCI-H23 lung
# SK-MEL-28 melanoma = test system: SK-MEL-28 melanoma
# RPMI-8226 leukemia = test system: RPMI-8226 leukemia
# NCI-H226 lung = test system: NCI-H226 lung
# MDA-MB-231 breast = test system: MDA-MB-231 breast
# MDA-N = test system: MDA-N
# DMS 114 small cell lung = test system: DMS 114 small cell lung
# LOX IMVI melanoma = test system: LOX IMVI melanoma
# DLD-1 colon = test system: DLD-1 colon
# HCT-116 colon = test system: HCT-116 colon
# CAKI-1 renal = test system: CAKI-1 renal
# HOP-62 NSCLC = test system: HOP-62 NSCLC
# PC-3 prostate = test system: PC-3 prostate
# SR leukemia = test system: SR leukemia
# MOLT-4 leukemia = test system: MOLT-4 leukemia
# SF-539 CNS = test system: SF-539 CNS
# NCI-H522 lung = test system: NCI-H522 lung
# NCI-H460 lung = test system: NCI-H460 lung
# MCF7 breast = test system: MCF7 breast
# M14 melanoma = test system: M14 melanoma
# HL-60(TB) leukemia = test system: HL-60(TB) leukemia
# SK-OV-3 ovarian = test system: SK-OV-3 ovarian
# 786-0 renal = test system: 786-0 renal
# HCC-2998 colon = test system: HCC-2998 colon
# NCI/ADR-RES ovarian = test system: NCI/ADR-RES ovarian
# U251 CNS = test system: U251 CNS
# CCRF-CEM leukemia = test system: CCRF-CEM leukemia
# A549 NSCLC = test system: A549 NSCLC
# MDA-MB-435 = test system: MDA-MB-435
# ACHN renal = test system: ACHN renal
# SNB-78 CNS = test system: SNB-78 CNS
# HS 578T breast = test system: HS 578T breast
# SNB-19 CNS = test system: SNB-19 CNS
# UO-31 renal = test system: UO-31 renal
# KM12 colon = test system: KM12 colon
# SF-295 CNS = test system: SF-295 CNS
# UACC-257 melanoma = test system: UACC-257 melanoma
# TK-10 renal = test system: TK-10 renal
# SN12C renal = test system: SN12C renal
# SNB-75 CNS = test system: SNB-75 CNS
# HCT-15 colon = test system: HCT-15 colon
# DU-145 prostate = test system: DU-145 prostate
# SK-MEL-2 melanoma = test system: SK-MEL-2 melanoma
# SK-MEL-5 melanoma = test system: SK-MEL-5 melanoma
# HOP-92 NSCLC = test system: HOP-92 NSCLC
# COLO 205 colon = test system: COLO 205 colon
# SF-268 CNS = test system: SF-268 CNS
smiles,measurement,setting,value
Cc1nc2c(n1-c1ccc(Br)cc1)C(=O)c1ccccc1C2=O,TGI,UACC-62 melanoma,> 85.1 µM
same,TGI,HT29 colon,> 100 µM
same,TGI,RXF 393 renal,69.9 µM
same,TGI,OVCAR-3 ovarian,31.3 µM
same,TGI,EKVX NSCLC,> 100 µM
same,TGI,T-47D breast,> 100 µM
same,TGI,DMS 273 small cell lung,> 100 µM
same,TGI,RXF-631 renal,> 100 µM
same,TGI,K-562 leukemia,> 100 µM
same,TGI,MALME-3M melanoma,> 67.2 µM
same,TGI,OVCAR-4 ovarian,> 100 µM
same,TGI,OVCAR-8 ovarian,> 70.1 µM
same,TGI,SW-620 colon,> 100 µM
same,TGI,IGROV1 ovarian,> 64.4 µM
same,TGI,A498 renal,> 100 µM
same,TGI,OVCAR-5 ovarian,> 100 µM
same,TGI,NCI-H23 lung,> 100 µM
same,TGI,SK-MEL-28 melanoma,> 100 µM
same,TGI,RPMI-8226 leukemia,> 100 µM
same,TGI,NCI-H226 lung,> 100 µM
same,TGI,MDA-MB-231 breast,> 100 µM
same,TGI,MDA-N,> 100 µM
same,TGI,DMS 114 small cell lung,> 100 µM
same,TGI,LOX IMVI melanoma,> 100 µM
same,TGI,DLD-1 colon,> 100 µM
same,TGI,HCT-116 colon,> 74 µM
same,TGI,CAKI-1 renal,> 100 µM
same,TGI,HOP-62 NSCLC,> 100 µM
same,TGI,PC-3 prostate,51 µM
same,TGI,SR leukemia,> 100 µM
same,TGI,MOLT-4 leukemia,> 100 µM
same,TGI,SF-539 CNS,> 65.2 µM
same,TGI,NCI-H522 lung,> 79.2 µM
same,TGI,NCI-H460 lung,> 40.9 µM
same,TGI,MCF7 breast,> 100 µM
same,TGI,M14 melanoma,> 100 µM
same,TGI,HL-60(TB) leukemia,18 µM
same,TGI,SK-OV-3 ovarian,97 µM
same,TGI,786-0 renal,> 71.1 µM
same,TGI,HCC-2998 colon,> 100 µM
same,TGI,NCI/ADR-RES ovarian,> 100 µM
same,TGI,U251 CNS,> 43.6 µM
same,TGI,CCRF-CEM leukemia,> 100 µM
same,TGI,A549 NSCLC,> 100 µM
same,TGI,MDA-MB-435,23.3 µM
same,TGI,ACHN renal,> 100 µM
same,TGI,SNB-78 CNS,> 100 µM
same,TGI,HS 578T breast,50 µM
same,TGI,SNB-19 CNS,> 39.4 µM
same,TGI,UO-31 renal,> 40.6 µM
same,TGI,KM12 colon,> 100 µM
same,TGI,SF-295 CNS,> 59.6 µM
same,TGI,UACC-257 melanoma,> 100 µM
same,TGI,TK-10 renal,> 100 µM
same,TGI,SN12C renal,> 100 µM
same,TGI,SNB-75 CNS,> 62.1 µM
same,TGI,HCT-15 colon,> 100 µM
same,TGI,DU-145 prostate,> 100 µM
same,TGI,SK-MEL-2 melanoma,> 100 µM
same,TGI,SK-MEL-5 melanoma,> 100 µM
same,TGI,HOP-92 NSCLC,66 µM
same,TGI,COLO 205 colon,> 100 µM
same,TGI,SF-268 CNS,> 100 µM
